According to patent US20050256177A1, “Phenyl derivatives for the treatment of abnormal cell growth” (Pfizer Inc, priority 2004, published 2005):

Assays:
[1] = Metabolite profiling after single oral dose of [14C]-labelled parent drug in healthy male subjects; format: in vivo, human; details: for presence in HPLC-radiochromatogram of human fecal metabolites: human feces; for presence in HPLC-radiochromatogram of human fecal metabolites / presence in HPLC-radiochromatogram of circulating metabolites / presence in HPLC-radiochromatogram of human urinary metabolites: single 100 mg oral dose of labelled compound; for presence in HPLC-radiochromatogram of circulating metabolites: human plasma; for presence in HPLC-radiochromatogram of human urinary metabolites / matrices in which the metabolite was detected (humans): human urine; for matrices in which the metabolite was detected (humans): feces, plasma
Experimental: Four normal healthy male subjects between the ages of 26 and 55 years participated in the study. The subjects entered the Clinical Research Facility 12 hours before dosing, and remained there for up to 384 hours after dosing under continuous medical observation. All subjects had fasted at least 8 hours and were given a single 100 mg oral dose of the labeled compound (˜93 μCi/subject). The dose was administered in an open fashion in the morning. A standard meal was provided 4 hours later. The dosing formulation was prepared by dissolving the radiolabeled material in citrate buffered vehicle that was prepared by adding 100 ml of water to a 4 oz. amber bottle containing a dry powder blend of citric acid and sodium citrate. Total volume of dosage given was 240 ml.
After dosing, urine samples were collected for up to 16 days between the following time points: 0-12, 12-24, 24-48, 48-72, 72-96, 96-120, 120-144, 144-168, 168-192, 192-216, 216-240, 240-264, 264-288, 288-312, 312-336, 336-360 and 360-384 hours post-dose (i.e., first sample collected between 0-12 hours, second sample collected between 12-24 hours, and so on). The total volume of the urine samples was recorded after each collection. Feces were collected as passed, from time of dosing until 384 hours after dosing.
Blood sufficient to provided a minimum of 7 ml of plasma was collected, in heparinized tubes, from each subject at 0 (just before dosing), 1, 2, 4, 6, 8, 10, 12, 16, 24, 48, 72, 96, 120, 144 and 168 hours after the dose. Within 1 hour after collection, the blood samples were centrifuged in a refrigerated centrifuge and plasma was separated from whole blood. Samples collected over the first 168 hours post-dose were divided into two aliquots (3 ml and 4 ml). The 3 ml aliquots were used for the quantitation of unchanged 3-(4-bromo-2,6-difluoro-benzyloxy)-5-[3-(4-pyrrolidin-1-yl-butyl)-ureido]-isothiazole-4-carboxylic acid amide The other 4 ml aliquots were used for the analysis of total radioactivity. For metabolite identification, blood sufficient to yield 20 ml of plasma was collected at 4, 6, 8, 12, 16 and 24 hours after the dose. All samples were labeled, immediately frozen, and stored at −20° C. until analysis.
Radioactivity in urine, feces, and plasma was measured by liquid scintillation counting. All samples were counted in a Wallac 1409 liquid scintillation counter with quench correction determined by monitoring the Compton edge of the external gamma source. Radioactivity less than twice the background value of the pre-dose matrix was considered to be below the limit of quantification.
Urine samples obtained between the following time points were pooled for each subject: 0-12, 12-24, 24-48, 48-72 hours after the dose (i.e., first sample collected between 0-12 hours, second sample collected between 12-24 hours, and so on). The pooled samples (˜100 ml) were lyophilized overnight. The residues were extracted with methanol twice (10 and 5 ml). The supernatants were combined and 0.2 ml aliquots were counted in a liquid scintillation counter to determine the extraction efficiency. The supernatants were evaporated to dryness in a Turbo Vap LV evaporator. The residues were reconstituted with 1 ml of MeOH. Aliquots (50 μl) were injected onto the HPLC column without further purification.
Fecal homogenates were pooled (up to 0-264 hours) for each subject. The pooled samples (˜10 g) were suspended in 25 ml of acetonitrile. The suspensions were sonicated for 10 min, then stirred on a magnetic stirrer for 1 hour and centrifuged. Supernatants were separated and the residues further extracted with 25 ml of acetonitrile. The two supernatants were combined and 1 ml aliquots were counted in a scintillation counter to determine the extraction efficiency. The organic solvents were evaporated to dryness in a Turbo Vap LV evaporator and the residues were reconstituted in 1 ml of MeOH:water (50:50). Aliquots (100 μl) of concentrated fecal extracts were injected onto the HPLC column. […]

[2] = Metabolite detection in beagle dogs, methods similar to those used for human samples; format: in vivo; details: dog urine, feces, bile, plasma
[3] = Metabolite detection in Sprague-Dawley rats, methods similar to those used for human samples; format: in vivo; details: rat urine, feces, bile, plasma

presence in HPLC-radiochromatogram of human fecal metabolites [1] | presence in HPLC-radiochromatogram of circulating metabolites [1] | presence in HPLC-radiochromatogram of human urinary metabolites [1] | matrices in which the metabolite was detected (humans) [1] | SMILES | matrices in which the metabolite was detected (beagle dogs) [2] | matrices in which the metabolite was detected (rats) [3]
presence | presence | presence | – | NC(=O)c1c(OCc2c(F)cc(Br)cc2F)nsc1NC(=O)NCCCCN1CCCC1 [3-(4-Bromo-2,6-difluoro-benzyloxy)-5-[3-(4-pyrrolidin-1-yl-butyl)-ureido]-isothiazole-4-carboxylic acid amide, reference compound] | – | –
presence | – | presence | detected in urine and feces of humans | NC(=O)c1c(OCc2c(F)cc(Br)cc2F)nsc1NC(=O)NCCCCNCCCC(=O)O [Metabolite M1, 4-(4-{3-[3-(4-bromo-2,6-difluoro-benzyloxy)-4-carbamoyl-isothiazol-5-yl]-ureido}-butylamino)-butyric acid] | – | –
– | – | presence | detected in urine of humans | NC(=O)c1c(OCc2c(F)cc(Br)cc2F)nsc1NC(=O)NCCCC[N+]1([O-])CCCC1 [Metabolite M2, 3-(4-bromo-2,6-difluoro-benzyloxy)-5-[3-(4-pyrrolidin-1-yl-N-oxide-butyl)-ureido]-isothiazole-4-carboxylic acid amide] | in urine, feces, bile and plasma of Beagle dogs | –
– | presence | presence | detected in urine and plasma | O=C(O)c1c(F)cc(Br)cc1F [Metabolite M4, 4-bromo-2,6-difluorobenzoic acid] | – | found in rat urine
– | – | presence | detected in urine of humans | CC(=O)NC(CSCc1c(F)cc(Br)cc1F)C(=O)O (stereo not shown) [Metabolite M5, 2-Acetylamino-3-(4-bromo-2,6-difluoro-benzylsulfanyl)-propionic acid] | detected in urine of humans and beagle dogs | –
– | – | – | – | NC(=O)c1c(OCc2c(F)cc(Br)cc2F)nsc1NC(=O)NCCCCN1CC=CC1=O [Metabolite M8, 3-(4-bromo-2,6-difluoro-benzyloxy)-5-{3-[4-(2-oxo-2,5-dihyro-pyrrol-1-yl)-butyl]-ureido}-isothiazole-4-carboxylic acid amide] | detected in feces, bile and plasma of beagle dogs | detected in feces, bile and plasma of beagle dogs and Sprague-Dawley Rats
presence | presence | – | detected in feces and plasma | NC(=O)c1c(OCc2c(F)cc(Br)cc2F)nsc1NC(=O)NCCCC(=O)O [Metabolite M9, 4-{3-[3-(4-bromo-2,6-difluorobenzyloxy)-4-carbamoyl-isothiazol-5-yl]-ureido}-butyric acid] | found in dog feces | –
